Laboratory results reported in patent US20070066801A1 (priority 2003, published 2007).

System: mutant F. novicida knock-outs
Format: binding, Francisella novicida

For TSITPWFFLSRP [phage 4-4-2], the “expected binding of phage to knock-out mutants inactivated for the cell surface marker” value was “absence of specific binding”.
